Measured values reported in US9669034B2, “4-aryl-N-phenyl-1,3,5-triazin-2-amines containing a sulfoximine group” (BAYER INTELLECTUAL PROPERTY GMBH, priority 2011, dated 2017).
Like-named read-outs stand apart in the source and are kept apart here.

Experiments:
CDK9/CycT1 = CDK9/CycT1 (Homo sapiens (Human), UniProt P50750); test: CDK9/CycT1 kinase assay (TR-FRET); assay type: biochemical; settings: Method 1
Summary of the method: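 Recombinant full-length His-tagged human CDK9/CycT1, insect-cell expressed and Ni-NTA purified. Substrate is a biotinylated peptide (biotin-Ttds-linked). Kinase inhibition is read out by TR-FRET.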

CDK2/CycE = CDK2/CycE (Homo sapiens (Human), UniProt P24941); test: CDK2/CycE kinase assay (TR-FRET); assay type: biochemical; settings: Method 2
Summary of the method: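 Enzyme was GST-tagged human CDK2 with GST-tagged human CycE, expressed in Sf9 insect cells and glutathione-affinity purified. The kinase reaction used a biotinylated peptide substrate, with inhibition measured by TR-FRET.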

[1] = system: HeLa human cervical tumour cells; test: Proliferation assay (crystal violet), HeLa; assay type: cell-based; settings: Method 3, read-out: Inhibition of HeLa cell proliferation, IC50
Experimental: (§1) Cultivated tumour cells (NCI-H460, human non-small cell lung carcinoma cells, ATCC HTB-177; DU145, hormone-independent human prostate carcinoma cells, ATCC HTB-81; HeLa-MaTu, human cervical carcinoma cells, EPO-GmbH, Berlin; HeLa-MaTu-ADR, multidrug-resistant human cervical carcinoma cells, EPO-GmbH, Berlin; HeLa human cervical tumour cells, ATCC CCL-2; Caco-2 human colorectal carcinoma, ATCC HTB-37; B16F10 mouse melanoma cells, ATCC CRL-6475) were plated at a density of 5000 cells/well (DU145, HeLa-MaTu-ADR), 3000 cells/well (NCI-H460, HeLa-MaTu, HeLa), 1500 cells/well (Caco-2), or 1000 cells/well (B16 F10) in a 96-well multititer plate in 200 μL of their respective growth medium supplemented 10% fetal calf serum. After 24 hours, the cells of one plate (zero-point plate) were stained with crystal violet (see below), while the medium of the other plates was replaced by fresh culture medium (200 μL), to which the test substances were added in various concentrations (0 M, as well as in the range of […]; the final concentration of the solvent dimethylsulfoxide was 0.5%). The cells were incubated for 4 days in the presence of test substances. Cell proliferation was determined by staining the cells with crystal violet: the cells were fixed by adding 20 μL/measuring point of an 11% glutaric aldehyde solution for 15 minutes at room temperature. After three washing cycles of the fixed cells with water, the plates were dried at room temperature. The cells were stained by adding 100 μL/measuring point of a 0.1% crystal violet solution (pH 3.0). After three washing cycles of the stained cells with water, the plates were dried at room temperature. The dye was dissolved by adding 100 μL/measuring point of a 10% acetic acid solution. The absorbance was determined by photometry at a wavelength of 595 nm. The change of cell number, in percent, was calculated by normalization of the measured values to the absorbance values of the zero-point plate (=0%) and the absorbance of the untreated (0 M) cells (=100%). The IC50 values were determined by means of a 4 parameter fit.

[2] = system: HeLa-MaTu-ADR, multidrug-resistant human cervical carcinoma cells; test: Proliferation assay (crystal violet), HeLa-MaTu-ADR; assay type: cell-based; settings: Method 3, read-out: Inhibition of HeLa/MaTu/ADR cell proliferation, IC50
Experimental: as §1

[3] = system: NCI-H460, human non-small cell lung carcinoma cells; test: Proliferation assay (crystal violet), NCI-H460; assay type: cell-based; settings: Method 3, read-out: Inhibition of NCI-H460 cell proliferation, IC50
Experimental: as §1

[4] = system: DU145, hormone-independent human prostate carcinoma cells; test: Proliferation assay (crystal violet), DU145; assay type: cell-based; settings: Method 3, read-out: Inhibition of DU145 cell proliferation, IC50
Experimental: as §1

[5] = system: Caco-2 human colorectal carcinoma; test: Proliferation assay (crystal violet), Caco-2; assay type: cell-based; settings: Method 3, read-out: Inhibition of Caco-2 cell proliferation, IC50
Experimental: as §1

[6] = system: B16F10 mouse melanoma cells; test: Proliferation assay (crystal violet), B16F10; assay type: cell-based; settings: Method 3, read-out: Inhibition of B16F10 cell proliferation, IC50
Experimental: as §1

[7] = Homo sapiens, NCI-H460, NCI-H460 cells
[8] = Homo sapiens, DU-145, DU145 cells
[9] = Homo sapiens, Caco-2, Caco-2 cells
[10] = Mus musculus, B16-F10, B16F10 cells

Sequence of CDK9/CycT1 (P50750 whole entry): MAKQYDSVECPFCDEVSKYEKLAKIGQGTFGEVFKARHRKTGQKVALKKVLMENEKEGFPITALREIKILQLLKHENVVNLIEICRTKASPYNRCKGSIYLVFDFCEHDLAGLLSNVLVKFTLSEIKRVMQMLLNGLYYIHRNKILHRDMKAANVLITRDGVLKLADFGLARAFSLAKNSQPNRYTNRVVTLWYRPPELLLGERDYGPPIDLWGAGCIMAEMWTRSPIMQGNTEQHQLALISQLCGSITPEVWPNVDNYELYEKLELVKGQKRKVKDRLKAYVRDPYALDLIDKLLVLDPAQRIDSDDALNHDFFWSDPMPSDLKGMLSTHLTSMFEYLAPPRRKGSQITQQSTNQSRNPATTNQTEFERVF
Sequence of CDK9/CycT1 (O60563 whole entry partner): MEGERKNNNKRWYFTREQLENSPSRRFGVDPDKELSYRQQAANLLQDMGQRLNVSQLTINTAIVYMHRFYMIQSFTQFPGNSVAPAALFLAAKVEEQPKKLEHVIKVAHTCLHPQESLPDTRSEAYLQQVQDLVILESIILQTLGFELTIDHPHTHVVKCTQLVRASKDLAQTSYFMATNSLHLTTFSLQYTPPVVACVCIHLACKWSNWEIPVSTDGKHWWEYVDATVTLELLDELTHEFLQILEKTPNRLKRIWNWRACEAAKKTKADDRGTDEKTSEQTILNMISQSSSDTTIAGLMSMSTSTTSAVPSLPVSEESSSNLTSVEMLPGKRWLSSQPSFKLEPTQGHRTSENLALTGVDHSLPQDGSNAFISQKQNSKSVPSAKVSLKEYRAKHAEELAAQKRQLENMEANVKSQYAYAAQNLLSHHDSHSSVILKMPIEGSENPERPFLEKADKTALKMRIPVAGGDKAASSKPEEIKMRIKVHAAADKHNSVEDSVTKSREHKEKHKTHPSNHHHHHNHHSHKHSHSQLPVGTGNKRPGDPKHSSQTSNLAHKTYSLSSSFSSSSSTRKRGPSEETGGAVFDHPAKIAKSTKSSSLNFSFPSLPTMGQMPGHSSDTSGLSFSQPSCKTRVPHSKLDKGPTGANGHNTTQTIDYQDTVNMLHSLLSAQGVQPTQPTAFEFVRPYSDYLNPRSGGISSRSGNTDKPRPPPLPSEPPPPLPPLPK

Row | SMILES | IC50 (CDK9/CycT1) | IC50 (CDK2/CycE) | IC50 ([1]; Homo sapiens, HeLa) | IC50 ([2]; Homo sapiens, HeLa) | IC50 [3, 7] | IC50 [4, 8] | IC50 [5, 9] | IC50 [6, 10] | IC50 [1] | IC50 [2] | IC50 ([3]; NCI-H460 cells) | IC50 ([4]; DU145 cells) | IC50 ([5]; Caco-2 cells) | IC50 ([6]; B16F10 cells)
1 | CS(=N)(=O)Cc1cccc(Nc2ncnc(-c3ccc(F)cc3OCc3cc(F)c(F)c(F)c3)n2)c1 (racemic) [Example 104, (rac)-4-{4-Fluoro-2-[(3,4,5-trifluorobenzyl)oxy]phenyl}-N-{3-[(S-methylsulfonimidoyl)methyl]phenyl}-1,3,5-triazin-2-amine] | 2 nM | 54 nM | 110 nM | 240 nM | 110 nM | 120 nM | 150 nM | 120 nM | – | – | – | – | – | –
2 | COc1cc(F)ccc1-c1ncnc(Nc2cc(Cl)cc(CS(C)(=N)=O)c2)n1 (racemic) [Example 64, (rac)-N-{3-Chloro-5-[(S-methylsulfonimidoyl)methyl]phenyl}-4-(4-fluoro-2-methoxyphenyl)-1,3,5-triazin-2-amine] | 15 nM | 250 nM | 400 nM | 280 nM | 360 nM | 290 nM | 350 nM | 320 nM | – | – | – | – | – | –
3 | CS(=N)(=O)Cc1cccc(Nc2ncnc(-c3ccc(F)cc3OCc3ccc(F)cc3)n2)c1 (racemic) [Example 56, (rac)-4-{4-Fluoro-2-[(4-fluorobenzyl)oxy]phenyl}-N-{3-[(S-methylsulfonimidoyl)methyl]phenyl}-1,3,5-triazin-2-amine] | 6 nM | 410 nM | 370 nM | 780 nM | 350 nM | 370 nM | 860 nM | 470 nM | – | – | – | – | – | –
4 | CC#CCOc1cc(F)ccc1-c1ncnc(Nc2cccc(CS(C)(=N)=O)c2)n1 (single isomer, unassigned) [Example 75, 4-[2-(But-2-yn-1-yloxy)-4-fluorophenyl]-N-{3-[(S-methylsulfonimidoyl)methyl]phenyl}-1,3,5-triazin-2-amine] | 4 nM | 450 nM | – | – | – | – | – | – | 260 nM | 210 nM | 220 nM | 170 nM | 310 nM | 240 nM
5 | C#CCOc1cc(F)ccc1-c1ncnc(Nc2cccc(CS(C)(=N)=O)c2)n1 (single isomer, unassigned) [Example 79, 4-[4-Fluoro-2-(prop-2-yn-1-yloxy)phenyl]-N-{3-[(S-methylsulfonimidoyl)methyl]phenyl}-1,3,5-triazin-2-amine] | 5 nM | 440 nM | – | – | – | – | – | – | 440 nM | 350 nM | 420 nM | 380 nM | 390 nM | 370 nM
6 | CC#CCOc1cc(F)ccc1-c1ncnc(Nc2cccc(CS(C)(=N)=O)c2)n1 (single isomer, unassigned) [Example 74, 4-[2-(But-2-yn-1-yloxy)-4-fluorophenyl]-N-{3-[(S-methylsulfonimidoyl)methyl]phenyl}-1,3,5-triazin-2-amine] | 3 nM | 590 nM | 310 nM | 340 nM | 330 nM | – | 390 nM | 340 nM | – | – | – | 360 nM | – | –
7 | CS(=N)(=O)Cc1cccc(Nc2ncnc(-c3ccc(F)cc3OCc3ccncc3)n2)c1 (racemic) [Example 68, (rac)-4-[4-Fluoro-2-(pyridin-4-ylmethoxy)phenyl]-N-{3-[(S-methylsulfonimidoyl)methyl]phenyl}-1,3,5-triazin-2-amine] | 14 nM | 1500 nM | 410 nM | 3000 nM | 1100 nM | 460 nM | 1300 nM | 740 nM | – | – | – | – | – | –
8 | COc1cc(F)ccc1-c1ncnc(Nc2cc(F)c(F)c(CS(C)(=O)=NC#N)c2)n1 (racemic) [Example 105, (rac)-[(2,3-Difluoro-5-{[4-(4-fluoro-2-methoxyphenyl)-1,3,5-triazin-2-yl]amino}benzyl)(methyl)-oxido-λ^6-sulfanylidene]cyanamide] | 3 nM | 140 nM | 110 nM | 71 nM | 130 nM | 120 nM | 81 nM | 140 nM | – | – | – | – | – | –
9 | C=C(CO)COc1cc(F)ccc1-c1ncnc(Nc2cccc(CS(C)(=N)=O)c2)n1 (racemic) [Example 112, (rac)-2-({5-Fluoro-2-[4-({3-[(S-methylsulfonimidoyl)methyl]phenyl}amino)-1,3,5-triazin-2-yl]phenoxy}methyl)prop-2-en-1-ol] | 4 nM | 730 nM | 330 nM | 390 nM | 320 nM | 300 nM | 350 nM | 320 nM | – | – | – | – | – | –
10 | CS(=N)(=O)Cc1cccc(Nc2ncnc(-c3ccc(F)cc3OCc3cccc(F)c3)n2)c1 (racemic) [Example 90, (rac)-4-{4-Fluoro-2-[(3-fluorobenzyl)oxy]phenyl}-N-{3-[(S-methylsulfonimidoyl)methyl]phenyl}-1,3,5-triazin-2-amine] | 2 nM | 260 nM | 170 nM | 100 nM | 110 nM | 110 nM | 80 nM | 100 nM | – | – | – | – | – | –
11 | CCOC(=O)N=S(C)(=O)Cc1cccc(Nc2ncnc(-c3ccccc3OCc3ccc(F)cc3)n2)c1 (racemic) [Example 42, (rac)-Ethyl [{3-[(4-{2-[(4-fluorobenzyl)oxy]phenyl}-1,3,5-triazin-2-yl)amino]benzyl}(methyl)oxido-λ^6-sulfanylidene]carbamate] | 5 nM | 1600 nM | 610 nM | 520 nM | 370 nM | 590 nM | 680 nM | 680 nM | – | – | – | – | – | –
12 | CNC(=O)N=S(C)(=O)Cc1cccc(Nc2ncnc(-c3ccc(F)cc3OC)n2)c1 (racemic) [Example 15, (rac)-1-[(3-{[4-(4-Fluoro-2-methoxyphenyl)-1,3,5-triazin-2-yl]amino}benzyl)(methyl)oxido-λ^6-sulfanylidene]-3-methylurea] | 7 nM | 930 nM | 390 nM | 940 nM | 1000 nM | 370 nM | 1000 nM | 620 nM | – | – | – | – | – | –
13 | CS(=N)(=O)Cc1cccc(Nc2ncnc(-c3ccc(F)cc3OCc3ccnc(F)c3)n2)c1 (single isomer, unassigned) [Example 83, 4-{4-Fluoro-2-[(2-fluoropyridin-4-yl)methoxy]phenyl}-N-{3-[(S-methylsulfonimidoyl)methyl]phenyl}-1,3,5-triazin-2-amine] | 2 nM | 270 nM | 110 nM | 640 nM | 180 nM | 180 nM | 210 nM | 220 nM | – | – | – | – | – | –
14 | CS(=N)(=O)Cc1cccc(Nc2ncnc(-c3ccc(F)cc3OCc3cc(F)cc(C(F)(F)F)c3)n2)c1 (racemic) [Example 89, (rac)-4-(4-Fluoro-2-{[3-fluoro-5-(trifluoromethyl)benzyl]oxy}phenyl)-N-{3-[(S-methylsulfonimidoyl)methyl]phenyl}-1,3,5-triazin-2-amine] | 4 nM | 280 nM | 470 nM | 450 nM | 370 nM | 420 nM | 520 nM | 470 nM | – | – | – | – | – | –
